Measured values taken from patent US20230141563A1, “METHODS AND COMPOSITIONS FOR ATTENUATING ANTI-VIRAL TRANSFER VECTOR IGM RESPONSES” (Selecta Biosciences, Inc., priority 2021, published 2023).

System: AAV IgG
Assay: Serum AAV IgG (ELISA) in AAV-SEAP-injected mice
Format: in vivo, C57BL/6 female mice
Details: Example 12; SVP[Rapa] 100 μg; ibrutinib 500 μg
Experimental: At time indicated (days 5, 9, 12, 16, 21, 42, 47, 51, 55, 162,167,174, 195 and 210) mice were bled, serum separated from whole blood and stored at −20±5° C. until analysis. Then IgM antibodies to AAV was measured in ELISA: 96-well plates coated o/n with the AAV, washed and blocked on the following day, then diluted serum samples (1:40) added to the plate and incubated; plates washed, donkey anti-mouse IgM specific-HRP added and after another incubation and wash, the presence of IgM antibodies to AAV detected by adding TMB substrate and measuring at an absorbance of 450 nm with a reference wavelength of 570 nm (the intensity of the signal presented as top optical density, OD, is directly proportional to the quantity of IgM antibody in the sample).
Same serum samples from Example 3 were also tested for AAV IgG measured by ELISA along the same lines as IgM with the exception of goat anti-mouse IgG specific-HRP being used.

C=CC(=O)N1CCC[C@@H](n2nc(-c3ccc(Oc4ccccc4)cc3)c3c(N)ncnc32)C1 [ibrutinib]
animals AAV IgG-converting by d22: 10/10
